Assay results: patent US20080300263A1, “Pyrazolo [1,5-a] pyrimidine compounds and pharmaceutical compositions containing them” (EiRx Therapeutics plc, priority 2005, published 2008)
Read-outs that look alike come from different tables or passages of the source.

Tests used:
[1] = tested on: FRAT2-C9M-TF1 cells; assay: EC50 titration, Alamar Blue, suspension cells; type: cell-based, Human; conditions: Homo sapiens, 72 h, Alamar Blue
Protocol: (§1) On the day of the assay compounds are used to prepare dilution series on Titration Plates which are plated at ten times their final screening concentration in 10 μl aliquots.
(§2) Suspension cells are split 24 hours prior to drug treatment in order to bring the cultures into the log phase of growth. On the day of the assay the cells are plated directly into the Titration Plates at the appropriate pre-determined seeding density (Table 1) in 90 μl volumes thus reducing the concentration of the compounds to their final test concentration. The plates are incubated for 72 hours at 37° C. and 5% CO2 after which time they are assayed by Alamar Blue.
(§3) The EC50 values are calculated using the values obtained from the Alamar Blue readout which are converted into a “Percentage of the Untreated Control” and using Graph Pad Prism these values are plotted against the logarithm of the test concentration. Using a non-linear regression analysis a sigmoidal dose-response curve is generated from which the EC50 is determined.

[2] = tested on: breast cancer cell line MCF7; assay: EC50 titration, Alamar Blue, adherent cells; type: cell-based; conditions: Homo sapiens, 72 h
Protocol: as §1
(§4) For adherent cell lines plated 24 hours previously, a 90 μl volume of the appropriate cell culture medium is then added to each well of the Titration Plates and mixed by repeated aspiration/dispensing, thus taking the compounds to their final test concentration. Once the Titration Plates have been prepared the media is removed from all wells of the cell culture plate and the contents of the Titration Plates are then transferred to the appropriate wells of their relevant Test Plates and incubated for 72 h at 37° C. and 5% CO2 after which time they are assayed by Alamar Blue. Using a combination of Microsoft Excel and Graph Pad Prism, EC50s are determined.
as §3

[3] = tested on: colon cancer cell line HT29; assay: EC50 titration, Alamar Blue, adherent cells; type: cell-based; conditions: Homo sapiens, HT-29, 72 h
Protocol: as §1, §4, §3

[4] = tested on: non-transformed breast cell line MCF10A; assay: EC50 titration, Alamar Blue, adherent cells; type: cell-based; conditions: Homo sapiens, MCF-10A, 72 h
Protocol: as §1, §4, §3

[5] = tested on: C9M-TF1 cells; assay: EC50 titration, Alamar Blue, suspension cells; type: cell-based; conditions: Homo sapiens, 72 h
Protocol: as §1, §2, §3

[6] = tested on: A549 Non Small Cell Lung Carcinoma; assay: Primary high-throughput screen, Alamar Blue, adherent cells; type: cell-based; conditions: Homo sapiens, compound at 10 μM, 72 h, read-out: percentage kill, A549
Protocol: (§5) Adherent cells are plated at a pre-determined seeding density (Table 1) in flat-bottom 96 well plates 24 hours prior to drug treatment. The cell lines are plated in 100 μl volumes in each well. Cells are plated in all wells apart from those in Column 12 which contain 100 μL normal culture medium alone. These plates will be known as the Test Plates. The Test Plates are labelled with a Daughter Plate ID.
(§6) Daughter Plates containing 10 μl of a […] solution of test compound selected from among the candidate compounds stored at […] are thawed at room temperature. A 10 μL volume of 0.1% DMSO in PBS is added to all wells of Column 12 and the wells in Row A-F of Column 1. A 10 μl volume of a pre-determined concentration of the P13-Kinase inhibitor LY294002 is added to wells in Row G and H of Column 1. A 90 μl volume of the appropriate cell culture medium is then added to each well and mixed by repeated aspiration/dispensing. The compounds are at a final test concentration of 10 μM.
(§7) Once the Daughter Plates have been prepared the media is removed from all wells of the cell culture plate using an 8-Channel Vacuum Aspirator. The contents of the Daughter Plates are then transferred to the appropriate wells of their relevant Test Plates and the Test Plates are incubated for 72 h at 37° C. and 5% CO2. At the end of this period Test Plates are assayed by Alamar Blue. A 10 μl volume of Alamar Blue is added to all wells of the Test Plate. The Test Plates are incubated for […] at 37° C. and 5% CO2 and finally read using the BioTek SYNERGY plate reader (Excitation 530125 nm-Emission 590135 nm). Percentage inhibition is determined using Microsoft Excel spreadsheet calculations.
(§8) The figures appearing in the columns are the percentage kill achieved by that compound at 10 μM.

[7] = tested on: LS123 Colon adenocarcinoma (Dukes' type B); assay: as above; type: cell-based; conditions: Homo sapiens, LS-123; compound at 10 μM, 72 h; read-out: percentage kill, LS123
Protocol: as §5, §6, §7, §8

[8] = tested on: NCI ADR RES Breast adenocarcinoma (pleural effusion); assay: as above; type: cell-based; conditions: Homo sapiens, compound at 10 μM, 72 h, read-out: percentage kill, NCI ADR RES
Protocol: as §5, §6, §7, §8

[9] = tested on: MCF7 Mammary gland adenocarcinoma; assay: as above; type: cell-based; conditions: Homo sapiens, compound at 10 μM, 72 h, read-out: percentage kill, MCF7
Protocol: as §5, §6, §7, §8

[10] = tested on: SW480 Colon adenocarcinoma (Dukes' type B); assay: as above; type: cell-based; conditions: Homo sapiens, compound at 10 μM, 72 h, read-out: percentage kill, SW480
Protocol: as §5, §6, §7, §8

[11] = tested on: CACO2 Colon adenocarcinoma; assay: as above; type: cell-based; conditions: Homo sapiens, Caco-2; compound at 10 μM, 72 h; read-out: percentage kill, CAC02
Protocol: as §5, §6, §7, §8

[12] = tested on: PC3 Prostate carcinoma (bone metastasis); assay: as above; type: cell-based; conditions: compound at 10 μM, 72 h; read-out: percentage kill, PC3
Protocol: as §5, §6, §7, §8

[13] = tested on: U1810 Non Small Cell Lung Carcinoma; assay: as above; type: cell-based; conditions: U-1810; compound at 10 μM, 72 h; read-out: percentage kill, U1810
Protocol: as §5, §6, §7, §8

[14] = tested on: HT29 Colorectal adenocarcinoma; assay: as above; type: cell-based; conditions: Homo sapiens, HT-29; compound at 10 μM, 72 h; read-out: percentage kill, HT29
Protocol: as §5, §6, §7, §8

[15] = tested on: C9M-TF1 cells; assay: Primary high-throughput screen, Alamar Blue, suspension cells; type: cell-based; conditions: Homo sapiens, 72 h, compound at 10 μM, read-out: percentage kill, C9M
Protocol: as §6, §7
(§9) Suspension cells are split 24 hours prior to drug treatment in order to bring the cultures into the log phase of growth. On the day of the assay the cells are plated directly into the Daughter Plates at the appropriate pre-determined seeding density (Table 1) in 90 μl volumes, the concentration of the test compounds thus being reduced to 10 μM. Cells are plated in all wells apart from those in Column 12 which contain 901 normal culture medium alone. The plates are incubated for 72 h at 37° C. and 5% CO2 after which time they are assayed by Alamar Blue as per the preceding example.
as §8

[16] = tested on: FRAT2 overexpresing TF1 (FRAT2-C9M-TF1 cells); assay: as above; type: cell-based; conditions: Homo sapiens, compound at 10 μM, 72 h
Protocol: as §6, §7, §9, §8

[17] = minus GMCSF, read-out: percentage kill, FRAT2−
[18] = plus GMCSF, read-out: percentage kill, FRAT2+

Structure (SMILES)	EC50 [2] [µM]	EC50 [3] [µM]	EC50 ([1]; absence of growth factor) [µM]	EC50 ([1]; presence of growth factor) [µM]	EC50 [4] [µM]	EC50 [5] [µM]	inhibition at 10 µM [6] [%]	inhibition at 10 µM [7] [%]	inhibition at 10 µM [8] [%]	inhibition at 10 µM [9] [%]	inhibition at 10 µM [10] [%]	inhibition at 10 µM [11] [%]	inhibition at 10 µM [12] [%]	inhibition at 10 µM [13] [%]	inhibition at 10 µM [14] [%]	inhibition at 10 µM ([15]; first C9M column) [%]	inhibition at 10 µM ([15]; second C9M column) [%]	inhibition at 10 µM [16, 17] [%]	inhibition at 10 µM [16, 18] [%]
COc1cccc(-c2cnn3c(NCc4ccccn4)ccnc23)c1 [Compound 1]	3.8	3.98	11.8	12.9	18.6	26	34	91	58	68	33	61	-4	15	58	-1	2	54	28
Fc1ccc(-c2cnn3c(NCc4ccccn4)ccnc23)cc1Cl [Compound 11]	–	–	–	–	–	–	5	22	18	22	-6	61	-85	13	25	1	-6	71	35
ClCc1ccccc1-c1cnn2c(NCc3cccs3)ccnc12 [Compound 12]	–	–	–	–	–	–	4	31	-12	36	-22	17	-45	18	-5	0	0	52	19
c1ccc(CNc2ccnc3c(-c4ccc(N5CCOCC5)cc4)cnn23)nc1 [Compound 13]	–	–	–	–	–	–	18	55	28	56	-4	27	-37	13	-13	-1	-1	61	38
Clc1cccc(Nc2ccn3ncc(-c4ccncc4)c3n2)c1 [Compound 14]	–	–	–	–	–	–	26	13	2	26	10	46	-4	2	51	45	27	50	38

Now from value to compound, other results behind:

EC50 [2] [µM]	EC50 [3] [µM]	Structure (SMILES)	EC50 ([1]; absence of growth factor) [µM]	EC50 ([1]; presence of growth factor) [µM]	EC50 [4] [µM]	EC50 [5] [µM]	inhibition at 10 µM [6] [%]	inhibition at 10 µM [7] [%]	inhibition at 10 µM [8] [%]	inhibition at 10 µM [9] [%]	inhibition at 10 µM [10] [%]	inhibition at 10 µM [11] [%]	inhibition at 10 µM [12] [%]	inhibition at 10 µM [13] [%]	inhibition at 10 µM [14] [%]	inhibition at 10 µM ([15]; first C9M column) [%]	inhibition at 10 µM ([15]; second C9M column) [%]	inhibition at 10 µM [16, 17] [%]	inhibition at 10 µM [16, 18] [%]
1.78	1.58	COc1ccc(-c2cnn3c(NCc4ccccn4)ccnc23)c(OC)c1 [Compound 4]	2.75	5.62	14.5	21.4	12	92	67	64	53	35	-4	16	71	1	1	71	36
1.51	1.58	c1ccc(-c2cnn3c(NCc4ccccn4)ccnc23)cc1 [Compound 5]	3.63	5.75	12.9	16.6	10	87	63	87	62	78	-92	24	75	1	-11	61	42
1.32	1.41	Fc1ccccc1-c1cnn2c(NCc3ccccn3)ccnc12 [Compound 6]	5.75	5.13	23.4	10	6	72	51	64	3	37	-94	11	20	-1	-11	59	33
2.34	4.07	CN(C)c1cccc(-c2cnn3c(NCc4ccccn4)ccnc23)c1 [Compound 7]	6.61	5.01	11.5	20.4	5	82	63	68	44	32	-16	18	40	9	23	53	27
1.78	1.51	c1ccc(CNc2ccnc3c(-c4cccc5cccnc45)cnn23)nc1 [Compound 8]	5.62	5.75	6.17	17.8	-3	92	85	83	71	71	56	68	78	7	-4	68	39
